Measured values from PMC5428354, “Screening of a natural compound library identifies emodin, a natural compound from Rheum palmatum Linn that inhibits DPP4” (PeerJ, 2017).
Values joined by “and” are separate entries in the source; they are usually repeats but may differ in a detail not shown here. Equal values may be shown once. Read-outs that look alike come from different tables or passages of the source.

Assays:
Assay type in all cases: biochemical
DPP8 = DPP8 (Homo sapiens, UniProt Q6V1X1); assay: DPP8 activity assay (BPS Bioscience kit); settings: 100 µM, Exp #1-#5; for DPP8 activity: DMSO = Ctrl;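 for DPP8 assay, Emission (450 nm): fluorescence read with excitation at 365 nm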
Chain of DPP8 (Q6V1X1 whole entry): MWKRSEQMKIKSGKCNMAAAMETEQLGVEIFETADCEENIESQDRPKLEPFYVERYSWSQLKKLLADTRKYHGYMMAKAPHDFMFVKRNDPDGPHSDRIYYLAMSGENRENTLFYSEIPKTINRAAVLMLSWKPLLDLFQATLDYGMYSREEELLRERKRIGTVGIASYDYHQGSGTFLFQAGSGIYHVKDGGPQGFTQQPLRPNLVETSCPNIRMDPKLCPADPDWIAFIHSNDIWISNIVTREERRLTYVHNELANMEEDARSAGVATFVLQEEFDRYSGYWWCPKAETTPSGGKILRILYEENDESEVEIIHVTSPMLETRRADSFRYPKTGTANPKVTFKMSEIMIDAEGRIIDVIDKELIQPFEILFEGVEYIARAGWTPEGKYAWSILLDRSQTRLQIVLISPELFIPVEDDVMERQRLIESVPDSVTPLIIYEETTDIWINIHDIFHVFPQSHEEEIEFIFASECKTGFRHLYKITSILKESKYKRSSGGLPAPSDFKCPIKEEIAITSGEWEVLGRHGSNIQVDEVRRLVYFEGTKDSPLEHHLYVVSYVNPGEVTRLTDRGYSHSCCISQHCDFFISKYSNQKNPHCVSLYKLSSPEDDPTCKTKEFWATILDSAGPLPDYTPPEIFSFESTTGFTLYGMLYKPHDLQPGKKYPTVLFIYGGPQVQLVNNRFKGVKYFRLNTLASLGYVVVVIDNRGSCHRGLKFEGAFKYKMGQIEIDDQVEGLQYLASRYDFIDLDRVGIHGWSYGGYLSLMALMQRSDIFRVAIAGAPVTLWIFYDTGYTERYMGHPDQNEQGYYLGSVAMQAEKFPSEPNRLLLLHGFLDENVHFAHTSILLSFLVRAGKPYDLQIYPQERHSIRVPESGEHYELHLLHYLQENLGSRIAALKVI
Experimental: A DPP8 assay kit was purchased from BPS Bioscience (Cat# 800208), and the assay protocol was followed to test for inhibitory activity on DPP8. Briefly, DPP substrate 1 was diluted to make a 100 µM stock solution, and DPP8 protein was diluted in DPP assay buffer to 2 ng/µl (20 ng/reaction). For the tested compounds, 10 µl of diluted DPP8 protein, 5 µl of diluted DPP substrate 1, 84 µl of DPP assay buffer and 1 µl of inhibitor were addedinto the assay system for a total volume of 100 µl. The reaction mixtures were prepared in duplicate on a 96-well plate and incubated at room temperature for 10 min. […]

DPP9 = molecular target: T1, DPP9 (Homo sapiens, UniProt Q86TI2); assay: DPP9 activity assay (BPS Bioscience kit); settings: 100 µM, Well #1-#3; for DPP9 activity: DMSO = Ctrl;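 for DPP9 assay, Emission (450 nm): 20 ng DPP9 per 100 µl reaction with DPP substrate 1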
T1 construct: purchased BPS Bioscience 800209
T1 sequence (Q86TI2 whole entry): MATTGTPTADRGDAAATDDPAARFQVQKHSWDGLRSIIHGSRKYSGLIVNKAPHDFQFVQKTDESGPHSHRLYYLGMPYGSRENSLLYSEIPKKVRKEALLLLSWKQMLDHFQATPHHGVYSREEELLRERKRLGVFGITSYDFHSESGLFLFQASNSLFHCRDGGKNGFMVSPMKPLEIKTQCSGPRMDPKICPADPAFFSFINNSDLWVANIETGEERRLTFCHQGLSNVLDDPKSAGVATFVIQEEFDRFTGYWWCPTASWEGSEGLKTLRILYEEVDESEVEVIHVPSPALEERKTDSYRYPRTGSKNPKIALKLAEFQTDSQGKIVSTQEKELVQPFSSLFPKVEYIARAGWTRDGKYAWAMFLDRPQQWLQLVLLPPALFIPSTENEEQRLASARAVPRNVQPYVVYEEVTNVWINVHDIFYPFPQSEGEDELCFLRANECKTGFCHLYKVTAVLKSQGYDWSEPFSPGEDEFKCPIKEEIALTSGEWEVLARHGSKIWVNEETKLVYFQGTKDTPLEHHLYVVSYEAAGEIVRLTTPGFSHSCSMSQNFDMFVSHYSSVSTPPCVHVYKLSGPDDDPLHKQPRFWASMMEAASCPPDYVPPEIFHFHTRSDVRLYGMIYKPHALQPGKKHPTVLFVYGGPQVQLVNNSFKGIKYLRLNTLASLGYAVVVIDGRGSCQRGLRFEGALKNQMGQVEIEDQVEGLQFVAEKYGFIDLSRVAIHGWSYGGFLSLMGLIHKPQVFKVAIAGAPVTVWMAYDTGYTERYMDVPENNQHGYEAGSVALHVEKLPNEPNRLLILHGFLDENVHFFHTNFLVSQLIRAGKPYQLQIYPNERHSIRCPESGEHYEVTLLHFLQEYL

DPP4 = DPP4 (Homo sapiens, UniProt P27487); assay: DPP4 activity assay (DPP4 inhibitor screening assay kit, Cayman); parameters: purchased Cayman Chemical, Ann Arbor, MI, USA; settings: for remaining activity at 10 µM: 0.5 h, control mean 100.0;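 for all read-outs here: fluorescence read at excitation 360 nm and emission 460 nm after the enzyme reaction ran 30 min at 37 °C in a 96-well plate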
Chain of DPP4 (P27487 whole entry): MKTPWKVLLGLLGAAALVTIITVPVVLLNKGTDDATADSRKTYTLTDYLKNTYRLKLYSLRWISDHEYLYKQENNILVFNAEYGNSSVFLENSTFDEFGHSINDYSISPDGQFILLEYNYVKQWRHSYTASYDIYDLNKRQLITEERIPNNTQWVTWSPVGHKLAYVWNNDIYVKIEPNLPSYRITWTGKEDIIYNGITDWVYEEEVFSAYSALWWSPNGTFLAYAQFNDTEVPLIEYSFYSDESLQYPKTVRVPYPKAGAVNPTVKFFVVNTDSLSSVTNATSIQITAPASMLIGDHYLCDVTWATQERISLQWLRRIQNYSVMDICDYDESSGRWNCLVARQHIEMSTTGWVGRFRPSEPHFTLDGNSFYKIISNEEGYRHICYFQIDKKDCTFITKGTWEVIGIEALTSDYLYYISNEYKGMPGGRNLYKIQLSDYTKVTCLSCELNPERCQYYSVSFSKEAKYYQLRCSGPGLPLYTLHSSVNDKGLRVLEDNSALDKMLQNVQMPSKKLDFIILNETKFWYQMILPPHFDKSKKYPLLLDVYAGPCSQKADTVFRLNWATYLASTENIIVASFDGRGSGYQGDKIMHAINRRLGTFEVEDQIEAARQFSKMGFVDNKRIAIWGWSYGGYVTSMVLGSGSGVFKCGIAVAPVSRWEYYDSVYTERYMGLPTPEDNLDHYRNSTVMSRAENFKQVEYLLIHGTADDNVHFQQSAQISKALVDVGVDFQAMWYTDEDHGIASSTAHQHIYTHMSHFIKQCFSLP

Row | Structure (SMILES) | DPP8 activity (DPP8) | DPP9 assay, Emission (450 nm) (DPP9) | DPP9 activity (DPP9) | remaining activity at 10 µM (DPP4; Figure 1A raw data, read-out: DPP4 activity in library screen, Exp 1) [%] | remaining activity at 10 µM (DPP4; Figure 1A raw data, read-out: DPP4 activity in library screen, Exp 2) [%] | remaining activity at 10 µM (DPP4; Figure 1A raw data, read-out: DPP4 activity in library screen, Exp 3) [%] | remaining activity at 10 µM (DPP4; mean of Exp 1-3, read-out: DPP4 activity in library screen, Mean) [%] | DPP8 assay, Emission (450 nm) (DPP8) | Ki (DPP4; DPP4, means ± SE) [µM] | IC50 (DPP4; in vitro, means ± SE, read-out: IC50 of DPP4 Inhibition) [µM]
1 | COc1cc(O)c2c(c1)C(=O)c1cc(C)cc(O)c1C2=O [Rheochrysidin] | 78.2 % of Ctrl and 100.6 % of Ctrl and 89.5 % of Ctrl and 95.0 % of Ctrl and 106.4 % of Ctrl | 49845 and 45873 and 51642 | 102.3 % of Ctrl and 94.2 % of Ctrl and 106.0 % of Ctrl | 44.7 | 52.2 | 53.9 | 50.3 | – | – | –
2 | O=C1c2cccc(O)c2C(=O)c2c(O)cc(CO)cc21 [Aloe-emodin] | 59.6 % of Ctrl and 101.9 % of Ctrl and 112.4 % of Ctrl and 103.3 % of Ctrl and 77.7 % of Ctrl | 45255 and 48696 and 44751 | 92.9 % of Ctrl and 100.0 % of Ctrl and 91.9 % of Ctrl | – | – | – | – | 28333 and 31255 and 28705 and 40933 and 31387 | 2.37 ± 0.62 | 16 ± 4.24
